Among the data in patent publication US20210395256A1, “TYROSINE KINASE INHIBITORS, COMPOSITIONS AND METHODS THERE OF” (Betta Pharmaceuticals Co., Ltd., priority 2018, published 2021) are IC50 values, retold here.

Structures can show the parent of a compound that is named as a salt.

Sequence of TrkA kinase (P04629 33-796): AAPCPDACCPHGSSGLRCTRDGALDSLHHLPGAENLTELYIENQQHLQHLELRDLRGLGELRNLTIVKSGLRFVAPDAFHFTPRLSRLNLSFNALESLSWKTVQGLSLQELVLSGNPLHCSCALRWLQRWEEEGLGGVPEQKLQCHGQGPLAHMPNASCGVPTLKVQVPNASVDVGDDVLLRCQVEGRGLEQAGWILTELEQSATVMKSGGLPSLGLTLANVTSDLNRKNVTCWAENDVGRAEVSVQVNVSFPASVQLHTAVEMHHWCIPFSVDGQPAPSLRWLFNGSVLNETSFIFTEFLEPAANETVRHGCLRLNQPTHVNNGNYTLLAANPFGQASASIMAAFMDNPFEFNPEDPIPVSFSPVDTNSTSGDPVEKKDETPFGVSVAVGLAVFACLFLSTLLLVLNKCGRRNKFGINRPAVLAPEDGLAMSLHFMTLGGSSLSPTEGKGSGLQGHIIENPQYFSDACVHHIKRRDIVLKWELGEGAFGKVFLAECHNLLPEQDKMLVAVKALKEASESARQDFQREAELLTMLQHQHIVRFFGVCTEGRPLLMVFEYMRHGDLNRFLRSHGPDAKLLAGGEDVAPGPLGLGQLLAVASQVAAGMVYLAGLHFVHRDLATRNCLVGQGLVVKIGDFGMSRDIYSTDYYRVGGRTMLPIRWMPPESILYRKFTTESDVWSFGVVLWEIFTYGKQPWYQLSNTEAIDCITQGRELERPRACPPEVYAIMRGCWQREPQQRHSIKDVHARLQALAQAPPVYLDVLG

For one test, the target named is TrkA kinase (Homo sapiens, UniProt P04629). Nature of the test: TrkA kinase assay (mobility shift assay). Type of test: biochemical. The note with it: class symbols; read-out: Trk A Kinase IC50. The method, then:
Example 201 TrkA Kinase Assay
Mobility shift assay was used to determine the inhibitory activity of compounds against TrkA kinase. Assay procedures are as follows:
1× Kinase base buffer (50 mM HEPES, pH 7.5; 0.0015% Brij-35)
Stop buffer (100 mM HEPES, pH 7.5; 0.015% Brij-35; 0.2% Coating Reagent #3; 50 mM EDTA)
1) Dilute the compound to 50× of the final desired highest inhibitor concentration in reaction by 100% DMSO. Transfer 100 μl of this compound dilution to a well in a 96-well plate.
2) For all compounds, transfer the compound in tubes to one well on 96-well storage plate and serially dilute the compound by transferring 30 μl to 60 μl of 100% DMSO in the next well and so forth for a total of 10 concentrations.
3) Add 100 μl of 100% DMSO to two empty wells for no compound control and no enzyme control in the same 96-well plate. Mark the plate as source plate.
4) Prepare intermediate plate
Transfer 10 μl of compound from source plate to a new 96-well plate as the intermediate plate
Add 90 µl of 1× kinase buffer to each well of the intermediate plate.
Mix the compounds in intermediate plate for 10 min on shaker.
1) Transfer 5 μl of each well from the 96-well intermediate plate to a 384-well plate in duplicates. For example, A1 of the 96-well plate is transferred to A1 and A2 of the 384-well plate. A2 of the 96-well plate is transferred to A3 and A4 of the 384-well plate, and so on.
1) Prepare 2.5× enzyme solution
Add kinase in 1× kinase base buffer.
2) Prepare 2.5× peptide solution Add FAM-labeled peptide and ATP in the 1× kinase base buffer.
3) Assay plate already contains 5 μl of compound in 10% DMSO.
4) Transfer 2.5× enzyme solution to the assay plate
Add 10 μl of 2.5× enzyme solution to each well of the 384-well assay plate.
5) Incubate at room temperature for 10 min.
6) Transfer 2.5× peptide solution to the assay plate
Add 10 μl of 2.5× peptide solution to each well of the 384-well assay plate.
Kinase reaction conditions are shown as Table 11:
7) Kinase reaction and stop
Incubate at 28° C. for specified period of time.
Add 25 μl of stop buffer to stop reaction.
1) Copy conversion data from Caliper program.
2) Convert conversion values to inhibition values.
Percent inhibition=(max-conversion)/(max-min)*100.
“max” stands for DMSO control; “min” stands for low control.
3) Fit the data in XLFit excel add-in version 5.4.0.8 to obtain IC50 values.
Equation used is: Y=Bottom+(Top-Bottom)/(1+(IC50/X)^HillSlope)
One may read the IC50 as the concentration that inhibits the measured activity by half. Turning to `C#CC(O)c1nnc(-c2cnn3ccc(N4CCC[C@@H]4c4cc(F)ccc4F)nc23)[nH]1` (stereo partly drawn) [Compound 48, 1-(5-(5-((R)-2-(2,5-difluorophenyl)pyrrolidin-1-yl)pyrazolo[1,5-a]pyrimidin-3-yl)-4H-1,2,4-triazol-3-yl)prop-2-yn-1-ol], the IC50 was at most 10 nM.

As to `CC(C)[C@H](N)C(=O)N[C@H](C(=O)O[C@@H](C)c1nnc(-c2cnn3ccc(N4CCC[C@@H]4c4cc(F)ccc4F)nc23)[nH]1)C(C)C` [Compound 55, (S)-1-(5-(5-((R)-2-(2,5-difluorophenyl)pyrrolidin-1-yl)pyrazolo[1,5-a]pyrimidin-3-yl)-4H-1,2,4-triazol-3-yl)ethyl L-valylvalinate hydrochloride], the half-inhibitory concentration (IC50) was in the range of 10 to 50 nM.

Take `Fc1ccc(F)c([C@H]2CCCN2c2ccn3ncc(-c4nnc(-c5ccc(Oc6ccccc6)cc5)[nH]4)c3n2)c1` [Compound 58, (R)-5-(2-(2,5-difluorophenyl)pyrrolidin-1-yl)-3-(5-(4-phenoxyphenyl)-4H-1,2,4-triazol-3-yl)pyrazolo[1,5-a]pyrimidine]: the IC50 was over 50 nM.

With `Fc1ccc(F)c([C@H]2CCCN2c2ccn3ncc(-c4nnc(-c5ccc6cn[nH]c6c5)[nH]4)c3n2)c1` [Compound 59, (R)-3-(5-(1H-indazol-6-yl)-4H-1,2,4-triazol-3-yl)-5-(2-(2,5-difluorophenyl)pyrrolidin-1-yl)pyrazolo[1,5-a]pyrimidine], the IC50 was at most 10 nM.

In the case of `O[C@@H]1C[C@](O)(c2nnc(-c3cnn4ccc(N5CCC[C@@H]5c5cc(F)ccc5F)nc34)[nH]2)C[C@@H](O)[C@H]1O` [Compound 60, (1R,2S,3R,5S)-5-(5-(5-((R)-2-(2,5-difluorophenyl)pyrrolidin-1-yl)pyrazolo[1,5-a]pyrimidin-3-yl)-4H-1,2,4-triazol-3-yl)cyclohexane-1,2,3,5-tetraol], the half-inhibitory concentration (IC50) is 10 to 50 nM.

Consider `Fc1ccc(F)c([C@H]2CCCN2c2ccn3ncc(-c4nnc(-c5ccc6c(c5)OCC6)[nH]4)c3n2)c1` [Compound 61, (R)-5-(2-(2,5-difluorophenyl)pyrrolidin-1-yl)-3-(5-(2,3-dihydrobenzofuran-6-yl)-4H-1,2,4-triazol-3-yl)pyrazolo[1,5-a]pyrimidine], for which the IC50 is at most 10 nM.

Turning to `Fc1ccc(F)c([C@H]2CCCN2c2ccn3ncc(-c4nc5ccc(N6CCN7CCC[C@@H]7C6)cc5[nH]4)c3n2)c1` [Compound 62, 5-((R)-2-(2,5-difluorophenyl)pyrrolidin-1-yl)-3-(6-((R)-hexahydropyrrolo[1,2-a]pyrazin-2(1H)-yl)-1H-benzo[d]imidazol-2-yl)pyrazolo[1,5-a]pyrimidine], the IC50 was over 50 nM.

With `Fc1ccc(F)c([C@H]2CCCN2c2ccn3ncc(-c4nc5ccc(N6CCN7CCC[C@@H]7C6)cc5s4)c3n2)c1` [Compound 63, 2-(5-((R)-2-(2,5-difluorophenyl)pyrrolidin-1-yl)pyrazolo[1,5-a]pyrimidin-3-yl)-6-((R)-hexahydropyrrolo[1,2-a]pyrazin-2(1H)-yl)benzo[d]thiazole], the IC50 is over 50 nM.

As for `Fc1ccc(F)c([C@H]2CCCN2c2ccn3ncc(-c4nc5cnc(N6CCOCC6)cc5[nH]4)c3n2)c1` [Compound 64, (R)-4-(2-(5-(2-(2,5-difluorophenyl)pyrrolidin-1-yl)pyrazolo[1,5-a]pyrimidin-3-yl)-1H-imidazo[4,5-c]pyridin-6-yl)morpholine], the IC50 was over 50 nM.

Turning to `COc1cc2nc(-c3cnn4ccc(N5CCC[C@@H]5c5cc(F)ccc5F)nc34)[nH]c2cc1C(C)O` (stereo partly drawn) [Compound 66, 1-(2-(5-((R)-2-(2,5-difluorophenyl)pyrrolidin-1-yl)pyrazolo[1,5-a]pyrimidin-3-yl)-5-methoxy-1H-benzo[d]imidazol-6-yl)ethan-1-ol], the IC50 was at most 10 nM.

As for `CC(O)c1ccc2nc(-c3cnn4ccc(N5CCC[C@@H]5c5cc(F)ccc5F)nc34)oc2c1` (stereo partly drawn) [Compound 68, 1-(2-(5-((R)-2-(2,5-difluorophenyl)pyrrolidin-1-yl)pyrazolo[1,5-a]pyrimidin-3-yl)benzo[d]oxazol-6-yl)ethan-1-ol], the IC50 is at most 10 nM.

Consider `OCc1ccc2nc(-c3cnn4ccc(N5CCC[C@@H]5c5cc(F)ccc5F)nc34)oc2c1` [Compound 69, (R)-(2-(5-(2-(2,5-difluorophenyl)pyrrolidin-1-yl)pyrazolo[1,5-a]pyrimidin-3-yl)benzo[d]oxazol-6-yl)methanol], for which the IC50 is at most 10 nM.

The test is the same for the next values; noted with them: numeric values; read-out: Trk A Kinase IC50.
`CCC(O)C(F)(F)c1nnc(-c2cnn3ccc(N4CCC[C@@H]4c4cc(F)ccc4F)nc23)[nH]1` (stereo partly drawn) [Compound 46, 1-(5-(5-((R)-2-(2,5-difluorophenyl)pyrrolidin-1-yl)pyrazolo[1,5-a]pyrimidin-3-yl)-4H-1,2,4-triazol-3-yl)-1,1-difluorobutan-2-ol]: the 50% inhibitory concentration (IC50) came to 2.02 nM.

`Fc1ccc(F)c([C@H]2CCCN2c2ccn3ncc(-c4nnc(C5COCCN5)[nH]4)c3n2)c1` (stereo partly drawn) [Compound 49, 3-(5-(5-((R)-2-(2,5-difluorophenyl)pyrrolidin-1-yl)pyrazolo[1,5-a]pyrimidin-3-yl)-4H-1,2,4-triazol-3-yl)morpholine]: the IC50 was 6.4 nM.

Consider `Fc1ccc(F)c([C@H]2CCCN2c2ccn3ncc(-c4nnc(-c5ccc6[nH]ccc6c5)[nH]4)c3n2)c1` [Compound 50, (R)-3-(5-(1H-indol-5-yl)-4H-1,2,4-triazol-3-yl)-5-(2-(2,5-difluorophenyl)pyrrolidin-1-yl)pyrazolo[1,5-a]pyrimidine], for which the IC50 was found to be 2.65 nM.

For the compound `CC(C)C[C@H](N)C(=O)O[C@@H](C)c1nnc(-c2cnn3ccc(N4CCC[C@@H]4c4cc(F)ccc4F)nc23)[nH]1` [Compound 51, (S)-1-(5-(5-((R)-2-(2,5-difluorophenyl)pyrrolidin-1-yl)pyrazolo[1,5-a]pyrimidin-3-yl)-4H-1,2,4-triazol-3-yl)ethyl L-leucinate hydrochloride], the IC50 was 3 nM.

Turning to `OCC(F)c1nnc(-c2cnn3ccc(N4CCC[C@@H]4c4cc(F)ccc4F)nc23)[nH]1` (stereo partly drawn) [Compound 52, 2-(5-(5-((R)-2-(2,5-difluorophenyl)pyrrolidin-1-yl)pyrazolo[1,5-a]pyrimidin-3-yl)-4H-1,2,4-triazol-3-yl)-2-fluoroethan-1-ol], the IC50 is 1.66 nM.

For `OC1(c2nnc(-c3cnn4ccc(N5CCC[C@@H]5c5cc(F)ccc5F)nc34)[nH]2)CC1` [Compound 53, (R)-1-(5-(5-(2-(2,5-difluorophenyl)pyrrolidin-1-yl)pyrazolo[1,5-a]pyrimidin-3-yl)-4H-1,2,4-triazol-3-yl)cyclopropan-1-ol], the IC50 was determined as 1.4 nM.

Take `CN1CCN(c2ccc(-c3nnc(-c4cnn5ccc(N6CCC[C@@H]6c6cc(F)ccc6F)nc45)[nH]3)cn2)CC1` [Compound 54, (R)-5-(2-(2,5-difluorophenyl)pyrrolidin-1-yl)-3-(5-(6-(4-methylpiperazin-1-yl)pyridin-3-yl)-4H-1,2,4-triazol-3-yl)pyrazolo[1,5-a]pyrimidine]: the IC50 was determined as 1.17 nM.

In the case of `Fc1ccc(F)c([C@H]2CCCN2c2ccn3ncc(-c4nnc(-c5ccc6ncccc6c5)[nH]4)c3n2)c1` [Compound 56, (R)-6-(5-(5-(2-(2,5-difluorophenyl)pyrrolidin-1-yl)pyrazolo[1,5-a]pyrimidin-3-yl)-4H-1,2,4-triazol-3-yl)quinoline], the IC50 was 1.2 nM.

With `Fc1ccc(F)c([C@H]2CCCN2c2ccn3ncc(-c4nnc(-c5ccc6nc[nH]c6c5)[nH]4)c3n2)c1` [Compound 57, (R)-3-(5-(1H-benzo[d]imidazol-6-yl)-4H-1,2,4-triazol-3-yl)-5-(2-(2,5-difluorophenyl)pyrrolidin-1-yl)pyrazolo[1,5-a]pyrimidine], the IC50 amounted to 0.6 nM.

As to `COc1cc2nc(-c3cnn4ccc(N5CCC[C@@H]5c5cc(F)ccc5F)nc34)[nH]c2cc1CO` [Compound 67, (R)-(2-(5-(2-(2,5-difluorophenyl)pyrrolidin-1-yl)pyrazolo[1,5-a]pyrimidin-3-yl)-5-methoxy-1H-benzo[d]imidazol-6-yl)methanol], the IC50 came to 0.32 nM.

As to `CC(O)c1cc2nc(-c3cnn4ccc(N5CCC[C@@H]5c5cc(F)ccc5F)nc34)[nH]c2cn1` (stereo partly drawn) [Compound 70, 1-(2-(5-((R)-2-(2,5-difluorophenyl)pyrrolidin-1-yl)pyrazolo[1,5-a]pyrimidin-3-yl)-3H-imidazo[4,5-c]pyridin-6-yl)ethan-1-ol], the half-inhibitory concentration (IC50) amounted to 0.5 nM.
